# Source: patent US6730295B2, “Anionic polymers as species specific antibacterial agents” (Genzyme Corporation, priority 2000, dated 2004)
# Tests used:
# Test in all cases: MIC assay (NCCLS broth microdilution)
# Format in all cases: cell-based
# Branhamella catarrhalis = settings: species 6 = Branhamella catarrhalis; 18-24 hr at 35° C., Mueller-Hinton broth
# Protocol: (§1) The minimum inhibitory concentration (MIC) assay is performed according to the Performance Standards for Antimicrobial Susceptibility Testing, 1998, vol. M 100-S8, Eighth Informational Supplement, NCCLS, 940 West Valley Road, Suite 1400, Wayne, Pa. 19087.
# (§2) Polymers to be tested were dissolved in 0.85% saline to a final concentration of either 830 or 1000 μg/ml, the pH was adjusted to 7.0 and the solution was filter-sterilized through a 0.22 μm filter. Two-fold serial dilutions of polymer were prepared in Mueller-Hinton broth with cations aliquotted into 96-well microtiter plates. The plates were then inoculated with […] of target organism, and incubated 18-24 hr at 35° C. The optical density (OD) was then read at 590 nm, and microorganism growth was scored (OD >0.1 is considered to be growth; OD <0.1 is considered growth inhibition). The MIC value was defined as the lowest concentration of compound which inhibits growth.
# E. Faecium = settings: species 2 = E. Faecium; 18-24 hr at 35° C., Mueller-Hinton broth
# Protocol: as §1, §2
# E. coli = settings: species 1 = E. coli; 18-24 hr at 35° C., Mueller-Hinton broth
# Protocol: as §1, §2
# N. meningitidis = settings: species 5 = N. meningitidis; 18-24 hr at 35° C., Mueller-Hinton broth
# Protocol: as §1, §2
# S. pneumoniae = settings: species 4 = S. pneumoniae; 18-24 hr at 35° C., Mueller-Hinton broth
# Protocol: as §1, §2
# S. sanguis = settings: species 3 = S. sanguis; 18-24 hr at 35° C., Mueller-Hinton broth
# Protocol: as §1, §2
smiles,measurement,setting,value
CCCCCCCCCCCCOS(=O)(=O)[O-].[Na+] [sodium dodecyl sulfate],minimum inhibitory concentration (MIC),Branhamella catarrhalis,9
same,minimum inhibitory concentration (MIC),E. Faecium,>83
same,minimum inhibitory concentration (MIC),E. coli,>83
same,minimum inhibitory concentration (MIC),N. meningitidis,28
same,minimum inhibitory concentration (MIC),S. pneumoniae,28
same,minimum inhibitory concentration (MIC),S. sanguis,28
